Counter-ions that a name gives are not always drawn. Like-named read-outs stand apart in the source and are kept apart here.
Assays:
[1] = test system: spontaneous hypertensive rat; assay: antihypertensive activity, spontaneous hypertensive rat (SHR) test, indirect tail cuff method; type: in vivo; settings: Table III
Experimental: Compounds of this invention are useful as antihypertensive agents due to their ability to depress blood pressure in mammals. Antihypertensive activity is measured in the spontaneous hypertensive rat by the indirect tail cuff method described by A. Schwartz, Ed., Methods in Pharmacology, Vol. page 135, Appleton Century Crafts, New York (1971). […] The drop in blood pressure is measured on the third day following administration. The antihypertensive activity is expressed as mm Hg decrease in mean arterial blood pressure.

[2] = test system: mice; assay: phenylquinone-induced writhing test in mice (PQW), analgesia; type: in vivo, male, CD-1 mice; settings: Mus musculus; for ED50: SC, printed in PQW % column, read-out: ED50 (PQW)
Experimental: Compounds of this invention produce analgesia when administered to mammals. A phenylquinone-induced writhing test in mice (PQW) was used as an assay to detect analgesia. The procedure employed was a modification of Siegmund, E., Cadmus, R. and Lu, G: Proc. Soc. Exptl. Bio. Med., 95: 729 (1957). 12.5 mg of phenyl-p-benzoquinone were dissolved in 5 ml of 95% ethanol and q.s. to 100 ml with distilled water and administered to mice (10 ml/kg, i.p.). This produces a characteristic "writhe" which is defined as an inward rotation of one or more feet with twisting and turning of the trunk, drawing in of the abdominal wall, lordosis and arching of the back.
A total of 28 male, CD-1 mice (18 to 30 grams) were employed for a time response. Animals recived food and water ad libitum. Drugs to be tested were prepared with distilled water and, if insoluble, one drop of a suitable surfactant was added.
Twenty animals (5/group) were administered the drug 15, 30, 45 and 60 minutes prior to phenylquinone injections. Control animals (2/group) received an equal amount of vehicle. After the administration of phenylquinone the mice were placed separately into one-liter beakers and 5 minutes were allowed to lapse. The mice were then observed for a period of 10 minutes and the number of writhes were recorded for each animal. The formula for computing percent inhibition is: [formula]
The time period with the greatest percent of inhibition is considered the peak time.
A dose range is run in the same fashion as a time response except 10 animals per group were tested at the peak time of drug activity. Fifty animals, 4 drug groups, and a vehicle control were employed. Animals were dosed and tested in a randomized manner. An estimated ED50 was calculated by a computer linear regression analysis.

[3] = Table III, 20 mg/kg SC, read-out: PQW % (percent inhibition of writhing)

SMILES	SHR mm Hg (decrease in mean arterial blood pressure) ([1]; 50 mg/kg PO)	change in vivo at 5 mg/kg ([2]; Table III, 5 mg/kg SC, read-out: PQW % (percent inhibition of writhing))	ED50 ([2]; Table III)	change in vivo at 20 mg/kg [2, 3]	SHR mm Hg (decrease in mean arterial blood pressure) ([1]; 0.3 mg/kg PO)	change in vivo at 20 mg/kg ([2]; sc, read-out: PQW % (percent inhibition of writhing))
CC1Oc2ccc(F)cc2COC12CCN(CCCCc1ccc(F)cc1)CC2 (stereo not drawn) [Example 77, 1'-[4-(4-Fluorophenyl)butyl]-7-fluoro-2-methylspiro[2H-1,4-benzodioxepin-3(5H)4'-piperidine]hydrochloride]	-40 mm Hg	-66%	4.3 mg/kg	–	–	–
CC1Oc2ccc(Cl)cc2COC12CCN(CCCCc1ccc(F)cc1)CC2 (stereo not drawn) [Example 78, 1'-[4-(4-Fluorophenyl)butyl]-7-chloro-2-methylspiro[2H-1,4-benzodioxepin-3(5H)4'-piperidine]hydrochloride]	-61 mm Hg	–	6.8 mg/kg	-68%	–	–
CC1Oc2ccc(Cl)cc2COC12CCN(CCCC(c1cccc(F)c1)c1cccc(F)c1)CC2 (stereo not drawn) [Example 79, 1'-[4,4-Bis(3-fluorophenyl)butyl]-7-chloro-2-methylspiro[2H-1,4-benzodioxepin-3(5H)4'-piperidine]hydrochloride]	–	–	–	-91%	-27 mm Hg	–
CC(=O)N1CCC2(CC1)OCc1cc([N+](=O)[O-])ccc1OC2C (stereo not drawn) [Example 80, 1'-Acetyl-2-methyl-7-nitrospiro[2H-1,4-benzodioxepin-3(5H)4'-piperidine]]	-19 mm Hg	–	–	-22%	–	–
CC1Oc2ccc(Cl)cc2COC12CCN(CCOC(c1ccc(F)cc1)c1ccc(F)cc1)CC2 (stereo not drawn) [Example 85, 7-Chloro-1'-[2-(bis(4-fluorophenyl)methoxy)ethyl]-2-methylspiro[2H-1,4-benzodioxepin-3(5H)4'-piperidine]hydrochloride]	-46 mm Hg	–	–	–	–	-44%
CC1Oc2ccc(Cl)cc2COC12CCN(CCCCC(c1ccc(F)cc1)c1ccc(F)cc1)CC2 (stereo not drawn) [Example 86, 7-Chloro-2-methyl-1'-[5,5-bis(4-fluorophenyl)pentyl]-spiro[2H-1,4-benzodioxepin-3(5H)4'-piperidine]hydrochloride]	-42 mm Hg	–	–	-25%	–	–
CC1Oc2ccccc2COC12CCN(CC(O)COc1ccccc1)CC2 (stereo not drawn) [Example 88, 2-Methyl-1'-(2-hydroxy-3-phenoxypropyl)spiro[2H-1,4-benzodioxepin-3(5H)4'-piperidine]hydrochloride]	-34 mm Hg	–	–	-99%	–	–
COc1ccc(OCC(O)CN2CCC3(CC2)OCc2ccccc2OC3C)cc1 (stereo not drawn) [Example 89, 2-Methyl-1'-[2-hydroxy-3-(4-methoxyphenoxy)propyl]-spiro[2H-1,4-benzodioxepin-3(5H)4'-piperidine]hydrochloride]	-40 mm Hg	–	–	-57%	–	–
CC1Oc2ccc(Cl)cc2COC12CCN(CC(O)COc1ccccc1)CC2 (stereo not drawn) [Example 91, 7-Chloro-2-methyl-1'-(2-hydroxy-3-phenoxypropyl)spiro[2H-1,4-benzodioxepin-3(5H)4'-piperidine]hydrochloride]	-29 mm Hg	–	–	-67%	–	–
COc1ccc(OCC(O)CN2CCC3(CC2)OCc2cc(Cl)ccc2OC3C)cc1 (stereo not drawn) [Example 92, 7-Chloro-2-methyl-1'-[2-hydroxy-3-(4-methoxyphenoxy)propyl]spiro[2H-1,4-benzodioxepin-3(5H)4'-piperidine]hydrochloride]	-66 mm Hg	–	–	-47%	–	–
CC1Oc2ccc(Cl)cc2COC12CCN(CC(O)COc1ccc(F)cc1)CC2 (stereo not drawn) [Example 93, 7-Chloro-2-methyl-1'-[2-hydroxy-3-(4-fluorophenoxy)propyl]spiro[2H-1,4-benzodioxepin-3(5H)4'-piperidine]hydrochloride]	-24 mm Hg	–	–	-88%	–	–
